Measurements as given in US7465848B2, “Zebrafish assay” (priority 2002, dated 2008).

Experiments:
[1] = test system: zebrafish KCNH2; test: Zebrafish KCNH2 knock-down with antisense morpholino, heart rate; assay type: in vivo, Danio rerio; details: about 5 nL injected at the single cell stage
Experimental: Approximately 5 nL of the morpholino antisense oligonucleotide diluted in Danieau's solution at the concentrations shown were injected into the zebrafish embryo at the single cell stage. The zebrafish KCNH2 morpholino was directed against the splice donor site of the sixth exon of the zebrafish KCNH2 ortholog (5′-[…]-3′; SEQ ID NO:2).

[2] = test system: zebrafish; details: for effect on zebrafish heart rate (bradycardia) in the initial screen: compound added to medium at 48 hpf, 1, 10, 100 mcg/ml, highest non-lethal concentration, ventricular rate
Experimental: TubingenAB zebrafish embryos were reared in E3 Media (5 mM NaCl, 0.17 mM KCl, 0.33 mM MgCl2, 0.33 mM CaCl2). At 24 hours post fertilization (hpf) the embryos were distributed into 96 well plates, 3-5 embryos per well with […] of E3 supplemented with phenylthiourea at 0.03 g/l to inhibit pigmentation.
DMSO alone was used as a control. HR measurement: 15 second video recordings were obtained from each well using a Nikon TE200 microscope fitted with a computer controlled stage, and a Hamamatsu ORCA-ER camera. One hundred twenty-eight frames with an exposure time of 90 ms were recorded for each video. Digital movies were taken for each well, one from each quadrant. These video clips were stored digitally.
Offline analysis was performed with commercially available imaging software (Metamorph Software, Universal Imaging). The average pixel density was measured for a region of interest over the heart, and these densities were plotted against time. […] The frequency spectrum was plotted and the peak was reported in a spreadsheet. Manual review of both time domain and frequency domain data as well as the peak frequency was performed to ensure the validity of the data. Fast-Fourier Transform was performed to determine HR. […] Each compound was tested at 1, 10, and 100 mcg/ml and the highest, non-lethal concentration chosen for HR effect. A two-tailed Student's t-test was performed to determine statistical significance.

Molecule: 5′-CCGTCGTACAGGCATGTTGTCCTA-3′ (all phosphorodiamidate morpholino (PMO)) [antisense morpholino]
- effect of KCNH2 antisense morpholino on zebrafish heart rate [1]: elicited bradycardia in a dose-dependent manner
- effect of KCNH2 antisense morpholino on zebrafish heart rate ([1]; listed as antisense morpholino oligonucleotides directed against zebrafish KCNH2): dose-dependent effect on HR

Molecule: CCN(CC)CCNC(=O)c1ccc(NC(C)=O)cc1 [N-acetyl-procainamide]
- effect on zebrafish heart rate (bradycardia) in the initial screen [2]: failed to cause bradycardia

Molecule: CN/C(=N/CCSCc1nc[nH]c1C)NC#N [cimetidine]
- drug-drug interaction on HR, cimetidine and terfenadine ([2]; in vivo): interaction of cimetidine and terfenadine

Molecule: COc1cc(N)c(Cl)cc1C(=O)NC1CCN(CCCOc2ccc(F)cc2)CC1OC (centres unmarked) [cisapride]
- change of ED50 on HR for cisapride with increasing doses of erythromycin ([2]; cisapride in combination with erythromycin (FIG. 2C)): ten-fold decrease

Molecule: CC[C@H]1OC(=O)[C@H](C)[C@@H](O[C@H]2C[C@@](C)(OC)[C@@H](O)[C@H](C)O2)[C@H](C)[C@@H](O[C@@H]2O[C@H](C)C[C@H](N(C)C)[C@H]2O)[C@](C)(O)C[C@@H](C)C(=O)[C@H](C)[C@@H](O)[C@]1(C)O [erythromycin]
- absorption into the zebrafish embryo ([2]; in vivo): is absorbed

Molecule: CC(=O)N1CCN(c2ccc(OCC3COC(Cn4ccnc4)(c4ccc(Cl)cc4Cl)O3)cc2)CC1 (centres unmarked) [ketoconazole]
- drug-drug interaction on HR, ketoconazole and terfenadine ([2]; in vivo): faithfully reproduced

Molecule: N=C(N)c1ccc(OCCCCCOc2ccc(C(=N)N)cc2)cc1 [pentamadine]
- effect on zebrafish heart rate (bradycardia) in the initial screen [2]: failed to cause bradycardia
